Results taken from ChEMBL document CHEMBL4706603, “Discovery of VEGFR-2 inhibitors exerting significant anticancer activity against CD44+ and CD133+ cancer stem cells (CSCs): Reversal of TGF-β induced epithelial-mesenchymal transition (EMT) in hepatocellular carcinoma” (Eur J Med Chem, 2020).
The source made the active and inactive calls. No cut-off for these calls is given here.

Legend:
[1] = Toxicity in Wistar rat assessed as effect on relative weight of heart at 5 to 2000 mg/kg, po and measured on day 15; type: organism-based; conditions: in vivo, 360 h, dose 5-2000 mg/kg, time 15 day
HepG2 [2] = experiment: Induction of apoptosis in human HepG2 cells assessed as blebbing of nucleus by measuring orange coloured fluorescence at IC50 incubated for 24 hrs by EtBr/AO staining based fluorescence microscopic analysis; type: functional, cell-based
HepG2 [3] = experiment: Antiproliferative activity against human HepG2 cells harboring CD44+ assessed as reduction in cell viability incubated for 24 hrs by MTT assay; type: functional, cell-based
HepG2 [4] = experiment: Induction of apoptosis in human HepG2 cells assessed as shrinkage of nucleus by measuring orange coloured fluorescence at IC50 incubated for 24 hrs by EtBr/AO staining based fluorescence microscopic analysis; type: functional, cell-based
HepG2 [5] = experiment: Induction of cell cycle arrest in human HepG2 cells harboring CD44+ assessed as increase in G0/G1 phase arrest at IC50 concentration incubated for 48 hrs by PI staining based flow cytometry analysis; type: functional
HepG2 [6] = experiment: Induction of DNA damage in human HepG2 cells assessed as increase in length of comet tail with decrease in nuclear DNA content with complete DNA damage at IC50 incubated for 24 hrs by Comet assay; type: functional, cell-based
[7] = Toxicity in female Wistar rat assessed as difficult to breathe at 2000 mg/kg, po observed for 48 hrs; type: organism-based; conditions: in vivo
[8] = Inhibition of VEGF expression in human HUVEC at IC50 incubated for 48 hrs by FITC based flow cytometry analysis relative to control; type: functional
[9] = Toxicity in female Wistar rat assessed as roughened fur at 2000 mg/kg, po observed for 48 hrs; type: organism-based; conditions: in vivo
[10] = Toxicity in Wistar rat assessed as normal histoarchitecture of alveoli and bronchi in lungs without inflammatory or pathological changes at 2000 mg/kg, po and measured on day 15 by microscopic analysis; type: organism-based; conditions: in vivo, 360 h, time 15 day
[11] = Toxicity in Wistar rat assessed as effect on uric acid level in serum at 5 to 2000 mg/kg, po and measured on day 15; type: organism-based; conditions: in vivo, 360 h, dose 5-2000 mg/kg, time 15 day
HepG2 [12] = experiment: Induction of apoptosis in human HepG2 cells assessed as late apoptotic cells by measuring orange coloured nucleus at IC50 incubated for 24 hrs by EtBr/AO staining based fluorescence microscopic analysis; type: functional, cell-based
[13] = Inhibition of VEGF expression in human HUVEC assessed as mean fluorescence intensity at IC50 incubated for 48 hrs by FITC based flow cytometry analysis (reference value: 53.91+/- 0.95); type: functional
HUVEC = experiment: Induction of apoptosis in human HUVEC assessed as late apoptotic cells at IC50 incubated for 48 hrs by annexin V-FITC and PI staining based flow cytometry; type: functional
[14] = Toxicity in Wistar rat assessed as effect on body weight at 5 to 300 mg/kg, po and observed for 14 days; type: organism-based; conditions: in vivo, 336 h, dose 5-300 mg/kg, time 14 day
[15] = Toxicity in female Wistar rat assessed as periodic body stretching at 2000 mg/kg, po observed for 48 hrs; type: organism-based; conditions: in vivo
[16] = Toxicity in Wistar rat assessed as effect on ALP level in serum at 5 to 2000 mg/kg, po and measured on day 15; type: organism-based; conditions: in vivo, 360 h, dose 5-2000 mg/kg, time 15 day
[17] = Toxicity in Wistar rat assessed as effect on urea level in serum at 5 to 2000 mg/kg, po and measured on day 15; type: organism-based; conditions: in vivo, 360 h, dose 5-2000 mg/kg, time 15 day
HepG2 [18] = experiment: Induction of mitochondrial membrane potential disruption in human HepG2 cells assessed as green fluorescence at IC50 incubated for 24 hrs by JC-10 staining based fluorescence assay; type: functional, cell-based
HepG2 [19] = experiment: Antimigratory activity against human HepG2 cells assessed as reduction in cell migration at IC50 incubated for 24 hrs by transwell migration assay; type: functional, cell-based
MDA-MB-231 [20] = experiment: Cytotoxicity against human MDA-MB-231 cells assessed as reduction in cell viability by trypan blue assay; type: functional, cell-based
[21] = Toxicity in Wistar rat assessed as effect on relative weight of liver at 5 to 2000 mg/kg, po and measured on day 15; type: organism-based; conditions: in vivo, 360 h, dose 5-2000 mg/kg, time 15 day
[22] = Toxicity in Wistar rat assessed as effect on food consumption at 5 to 2000 mg/kg, po and observed for 14 days; type: organism-based; conditions: in vivo, 336 h, dose 5-2000 mg/kg, time 14 day
[23] = Retention time in Wistar rat plasma by HPLC-MS analysis; type: ADME, cell-free
[24] = MRT in Wistar rat at 5 mg/kg, po measured upto 72 hrs by HPLC-MS analysis; type: ADME, organism-based; conditions: in vivo
[25] = Cmax in Wistar rat at 5 mg/kg, po measured upto 72 hrs by HPLC-MS analysis; type: ADME, organism-based; parameters: route oral, dose 5 mg/kg, time <=72; conditions: in vivo
[26] = Toxicity in Wistar rat assessed as effect on hematological parameters at 5 to 2000 mg/kg, po and measured on day 15; type: organism-based; conditions: in vivo, 360 h, dose 5-2000 mg/kg, time 15 day
HepG2 [27] = experiment: Antimigratory activity against human HepG2 cells assessed as reduction in cell migration at IC50 by transwell migration assay; type: functional, cell-based; conditions: TDE = time-dependent effect
HepG2 [28] = experiment: Antiproliferative activity against human HepG2 cells harboring CD133+ assessed as reduction in cell viability incubated for 24 hrs by MTT assay; type: functional, cell-based
[29] = Toxicity in po dosed Wistar rat; type: organism-based; conditions: in vivo
HepG2 [30] = experiment: Cytotoxicity against human HepG2 cells assessed as reduction in cell viability by trypan blue assay; type: functional, cell-based
HepG2 [31] = experiment: Induction of apoptosis in human HepG2 cells assessed as necrotic cells by measuring orange-red coloured flourescence at IC50 incubated for 24 hrs by EtBr/AO staining based fluorescence microscopic analysis; type: functional, cell-based
HepG2 [32] = experiment: Inhibition of epithelial-mesenchymal transition in TGF-beta-induced human HepG2 cells assessed as vimentin expression at IC50 incubated for 48 hrs by flow cytometry analysis (reference value: 98.19 %); type: functional; parameters: scale not given: the % may be the effect or the level left
[33] = Toxicity in female Wistar rat assessed as hard abdomen at 2000 mg/kg, po observed for 48 hrs; type: organism-based; conditions: in vivo
MDA-MB-231 [34] = experiment: Cytotoxicity against human MDA-MB-231 cells assessed as reduction in cell viability incubated for 24 hrs by MTT assay; type: functional, cell-based
HepG2 [35] = experiment: Induction of ROS production in human HepG2 cells at IC50 incubated for 3 hrs by fluorescence microscopic analysis; type: functional, cell-based
[36] = Toxicity in Wistar rat assessed as normal liver parenchyma with normal hepatocytes arranged in hepatic strands and normal vascular tissue and bile duct without inflammatory or pathological changes at 2000 mg/kg, po and measured on day 15 by microscopic analysis; type: organism-based; conditions: in vivo, 360 h, time 15 day
[37] = Toxicity in Wistar rat assessed as effect on SGOT level at 5 to 2000 mg/kg, po and measured on day 15; type: organism-based; conditions: in vivo, 360 h, dose 5-2000 mg/kg, time 15 day
[38] = Inhibition of VEGFR2 expression in human HUVEC assessed as mean fluorescence intensity at IC50 incubated for 48 hrs by FITC based flow cytometry analysis (reference value: 49.24 +/- 0.47); type: functional
[39] = Toxicity in Wistar rat assessed as normal splenic tissue with normal red and white pulp with lymphoid cellular population at 2000 mg/kg, po and measured on day 15 by microscopic analysis; type: organism-based; conditions: in vivo, 360 h, time 15 day

CC(=O)Nc1ccc(Oc2cccc3c(NC(=O)Nc4cccc(C(F)(F)F)c4)cccc23)cc1
Activity [1]: Non-Toxic | Activity (HepG2 [2]): Active | inhibition (HepG2 [3]): Dose-dependent effect | IC50 (HepG2 [3]; HepG2, 24 h): 3290 nM | Activity (HepG2 [4]): Active | Activity (HepG2 [5]): Active | Activity (HepG2 [6]): Active | Activity [7]: Toxic | fold change (FC) [8]: 0.39 | Activity [9]: Toxic | Activity [10]: Non-Toxic | Activity [11]: Non-Toxic | Activity (HepG2 [12]): Active | Flu intensity [13]: 21.41 | Activity (HUVEC): 6.09% | Activity [14]: Non-Toxic | Activity [15]: Toxic | Activity [16]: Non-Toxic | Activity [17]: Non-Toxic | Activity (HepG2 [18]): Active | Activity (HepG2 [19]): Active | IC50 (MDA-MB-231 [20]): 3580 nM | inhibition (MDA-MB-231 [20]): Dose-dependent effect | Activity [21]: Non-Toxic | Activity [22]: Non-Toxic | Retention_time [23]: 10.17 min | MRT [24]: 14.3 h | Cmax [25]: 39700 ng/mL | Activity [26]: Non-Toxic | Activity (HepG2 [27]): Tde | inhibition (HepG2 [28]): Dose-dependent effect | IC50 (HepG2 [28]; HepG2, 24 h): 2200 nM | LD50 [29]: > 2000 mg/kg | IC50 (HepG2 [30]): 1170 nM | inhibition (HepG2 [30]): Dose-dependent effect | Activity (HepG2 [31]): Active | Activity (HepG2 [32]): 20.44% | Activity [33]: Toxic | inhibition (MDA-MB-231 [34]): Dose-dependent effect | IC50 (MDA-MB-231 [34]; MDA-MB-231, 24 h): 1410 nM | Activity (HepG2 [35]): Active | Activity [36]: Non-Toxic | Activity [37]: Non-Toxic | Flu intensity [38]: 18.41 | Activity [39]: Non-Toxic
